These results are taken from US8431706B2, “1,2,3,4-tetrahydroqinoline derivative useful for the treatment of diabetes” (Eli Lilly and Company, priority 2011, dated 2013).

One test concerns Male Balb/c mice. Briefly: Intraperitoneal Glucose Tolerance Test (IPGTT). The class given is in vivo, mouse. The method, then:
To examine the ability of exemplified the compound to activate GPR40 in-vivo resulting in anti-diabetic efficacy, i.e. reduction in plasma glucose levels, a 4-day intraperitoneal glucose tolerance test (ipGTT) study is completed, and the data is shown for the compound tested below.
Male Balb/c (Albino mice) mice (8-9 weeks of age) are single housed, and fed with normal rodent chow diet and water ad libitum. Animals are weighed; randomized by body weight; and their daily body weights are recorded Animals are dosed once per day orally for three days using a formulation carrying methylcellulose and tween-80. On the night before Day 4, animals are fasted overnight. On the morning of Day 4, animals are dosed orally with compound or vehicle alone 60 minutes prior to the glucose tolerance test (glucose 2 g/kg, i.p.). Blood glucose levels are determined from tail bleeds taken at 0, 3, 7, 15, 30, and 60 min after glucose challenge. The blood glucose excursion profile from t=0 to t=60 min is used to integrate an area under the curve (AUC) for each treatment. Percent lowering in glucose is calculated from the AUC data of the compound with respect to the AUC of vehicle group. The test compound is orally administered at 0.3, 1.0, 3.0, 10, or 30 mg/kg, and a positive control (3-[4-(2-methyl-benzyloxy)-phenyl]-hex-4-ynoic acid, see WO2005086661.) is administered at 10 mg/kg. […] Glucose levels are lowered at the 15, 30, and 60 minute time points for the positive control. The ED50 for this compound based on AUCs for glucose lowering is 1.0 mg/kg.

A further test addresses T1, PPARγ (Homo sapiens, UniProt P37231).
T1 sequence (P37231 1-505): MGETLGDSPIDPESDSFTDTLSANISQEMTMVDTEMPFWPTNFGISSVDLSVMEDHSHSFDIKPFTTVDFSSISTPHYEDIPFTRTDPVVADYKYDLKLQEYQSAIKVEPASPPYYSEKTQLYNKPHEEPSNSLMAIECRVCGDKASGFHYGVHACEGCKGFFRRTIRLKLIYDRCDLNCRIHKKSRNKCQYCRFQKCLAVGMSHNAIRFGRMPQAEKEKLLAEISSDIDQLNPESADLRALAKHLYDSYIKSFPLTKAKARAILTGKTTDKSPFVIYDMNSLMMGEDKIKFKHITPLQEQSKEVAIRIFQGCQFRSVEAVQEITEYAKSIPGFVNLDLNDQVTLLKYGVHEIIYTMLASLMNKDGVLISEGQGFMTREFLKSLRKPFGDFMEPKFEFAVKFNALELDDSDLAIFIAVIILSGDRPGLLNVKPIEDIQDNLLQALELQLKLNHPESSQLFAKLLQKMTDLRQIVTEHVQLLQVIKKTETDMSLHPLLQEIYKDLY
T1 sequence (P19793 1-462 partner): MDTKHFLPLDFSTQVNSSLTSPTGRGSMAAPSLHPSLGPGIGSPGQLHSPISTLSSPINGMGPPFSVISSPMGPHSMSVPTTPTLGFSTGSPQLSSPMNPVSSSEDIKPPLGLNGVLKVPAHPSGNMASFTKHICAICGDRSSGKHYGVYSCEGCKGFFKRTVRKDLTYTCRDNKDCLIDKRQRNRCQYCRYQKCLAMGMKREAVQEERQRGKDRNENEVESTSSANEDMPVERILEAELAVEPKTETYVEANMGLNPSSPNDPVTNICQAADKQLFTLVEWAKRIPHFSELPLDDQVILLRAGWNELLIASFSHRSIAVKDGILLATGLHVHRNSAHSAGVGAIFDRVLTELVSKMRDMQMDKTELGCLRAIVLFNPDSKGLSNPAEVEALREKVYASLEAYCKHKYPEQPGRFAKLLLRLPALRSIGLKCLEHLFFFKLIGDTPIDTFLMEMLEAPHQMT
Nature of the test: PPARγ binding assay (SPA). More on the design: made in house; host or cells: HEK293 (cell lysates). The method, then:
Because GPR40 is known to be activated by ligands to PPARγ, the exemplified compound is examined in PPARα, PPARδ, and PPARγ binding and functional assays to determine the selectivity of the compound of Example 1 for GPR40.
Binding affinities of the compound for the PPAR α, δ, and γ receptors are assessed using Scintillation Proximity Assay (SPA) technology. Biotinylated oligonucleotide Direct Repeat 2 (DR2) is used for binding the receptors to Yttrium silicate streptavidin-coated SPA beads. PPAR α, δ, γ and retinoid X receptor (RXR) α are over expressed in HEK293 cells, and cell lysates containing the specific receptors are used in the individual assays. The DR2 is attached to the SPA beads over a 30 minute period in a binding buffer containing 10 mM HEPES pH 7.8, 80 mM KCl, 0.5 mM MgCl2, 1 mM DTT, 0.5% 3[(3-cholamidopropyl)dimethylammonio]-propanesulfonic acid (CHAPS), and 4.4% bovine serum. […] Non-specific binding is determined in the presence of 10,000 nM of the unlabeled PPAR α/δ dual agonist reference compound for the alpha and delta receptor assays and the PPARγ agonist reference compound for the gamma receptor assay. The binding reaction (100 μl per well in a 96 well [Costar 3632] plate) is incubated for 10 h and counted disintegration per minutes (dpm) on a Wallac Microbeta. Receptor binding affinity (IC50) for the compound is determined by fitting an 11 point concentration-response curve with a 4-parameter logistic equation. Ki is determined from the IC50 using the Cheng-Prussoff equation and Kd determined by saturation binding. […]

One may read the ED50 as the dose at which the effect has come halfway, by size or by number of responders. The term IC50 denotes the midpoint of a concentration-inhibition curve. With `CC#C[C@@H](CC(=O)O)c1ccc(OCc2ccc(CN3CCCc4cccc(OC)c43)s2)cc1` [Example 1, (3S)-3-[4-[[5-[(8-Methoxy-3,4-dihydro-2H-quinolin-1-yl)methyl]-2-thienyl]methoxy]phenyl]hex-4-ynoic acid], the “Glucose levels compared to vehicle control, 30 and 60 minute time points” value with Male Balb/c mice (1.0, 3.0, 10 and 30 mg/kg oral doses) was “significantly lowered”. In addition, the “Glucose levels compared to vehicle control, 15 minute time point” value in the test with Male Balb/c mice (3, 10 and 30 mg/kg oral doses) is “significantly lowered”. Moreover, in the test on Male Balb/c mice (Mus musculus, oral, once per day, 4 days, glucose 2 g/kg i.p., AUC t=0 to 60 min, read-out: ED50 based on AUCs for glucose lowering), the ED50 worked out at 1 mg/kg. Further, on PPARγ (concentrations up to 10 μM), the binding entry is listed as “no binding is detected”. Moreover, the IC50 on PPARγ (tested up to 30 μM, read-out: relative IC50) was above 10 µM. Moreover, the PPAR binding values entry at PPARγ (with 10 μM concentrations of test compound) was “greater than 1000 nM”.
